Measurements from PubChem BioAssay AID463074 (Broad Institute, 2010).
Active and inactive are the calls of the source.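 The calls were made as follows: active = AC50 no more than tenfold above the top dose tested, or full inhibition at every dose with a flat fit (cut at about 19 µM in these data); inconclusive = flat curve fit with inhibition between 30% and 70%, or poor fit; inactive = AC50 more than tenfold above the top dose tested.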

Test system: HMLE_sh_eGFP viability, CellTiter-Glo luminescence, 72 h
Test: cytotoxicity in HMLE control line with eGFP shRNA, dose response, counter-screen for HMLE_sh_ECad selective toxicity project, cell-based, HMLE_sh_eGFP, luminescence (AID 463074);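 also: counterscreen control line to flag general toxicity for the HMLE_sh_ECad screen; potency for loss of viability as luminescence drops below DMSO wells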

SMILES | AC50
Cc1cc(F)ccc1S(=O)(=O)Nc1ccccc1C(=O)Nc1ccccc1-c1nc2ccccc2[nH]1 | 5.51 µM
CS(=O)(=O)c1ncc(Cl)c(C(=O)Nc2ccc(N3CCOCC3)cc2)n1 | 6.81 µM
Cc1ccc2nc(NNC(=O)c3ccc(S(=O)(=O)N4CCc5ccccc5C4)cc3)sc2c1 | 3.91 µM
Cc1ccc(OCCN2CCN(c3nc(NCc4ccco4)c4ccccc4n3)CC2)cc1 | 4.66 µM
CC(C)(C)c1ccc(C(=O)Nc2ccc(N3CCOCC3)cc2)cc1 | 17.3 µM
CCN1C(=O)/C(=C\c2ccncc2)SC1=Nc1ccc(C)c(C)c1 | 6.82 µM
OC(CNCC1CCCO1)Cn1c2ccc(Cl)cc2c2cc(Cl)ccc21 (stereo not given) | 7.38 µM
CN1CCN(C2=Cc3cc(Cl)ccc3Sc3cc(F)ccc32)CC1 | 7.29 µM
CC(OC(=O)c1cccs1)C(=O)NC1CCCCC1C (stereo not given) | > 19.5 µM (inactive)
CC1(C)C(=O)N(c2ccccc2)C1c1ccccc1O (stereo not given) | 3.25 µM
COc1ccc(-c2sc3cc4c(cc3c2C#CC2(O)CCCCC2)OCO4)cc1 | 6.35 µM
N#Cc1c(-c2ccccc2)c(-c2ccccc2)nn(CC(=O)NNC(=O)Nc2ccc(Cl)c(Cl)c2)c1=O | 3.28 µM
COc1ccc(-c2cn(CCc3c[nH]c4ccccc34)nn2)cc1 | 2.69 µM
O=C(NCc1ccco1)c1cc(-c2ccc3c(c2)OCO3)on1 | 0.973 µM
Cc1cc(C)c(OCCCCN2CCNCC2)c(C)c1 | 16 µM
CCCc1ccc(O)c(N=Cc2cc(Br)cc(OCC)c2O)c1 | 9.03 µM
O=c1[nH]c(=O)n(C2C[C@H](O)[C@@H](CO)O2)cc1C(F)(F)F (stereo not given in full) | 0.946 µM
CC(C)=CCOc1ccc([C@@H]2COc3c(ccc4c3C=CC(C)(C)O4)C2)c(O)c1 | 3.04 µM
Cc1csc(N/N=C/c2ccccn2)n1 | 11 µM
CC1CCN(c2nc(-c3cccnc3)nc3scc(-c4ccccc4)c23)CC1 | 1.48 µM
O=C(CCSc1nc2ccccc2s1)N/N=C/c1c(O)ccc2ccccc12 | 16.2 µM
O=C(Nc1ccc(NC(=S)NC(=O)c2ccccc2Cl)cc1)c1cccc(Cl)c1 | 17.8 µM
Oc1ccc(Br)cc1-c1cc(-c2ccccc2)n[nH]1 | 6.31 µM
Cc1cc(NC(=O)/C=C/c2ccc(Cl)cc2)no1 | > 19.5 µM (inactive)
O=C(NCCc1c[nH]c2ccccc12)C1CCC(Cn2c(=S)[nH]c3ccccc3c2=O)CC1 (stereo not given) | 0.707 µM

SMILES | AC50
COc1cc(/C=C/C(=O)c2ccc(NS(=O)(=O)c3ccc(C)cc3)cc2)cc(OC)c1O | 4.11 µM
Cc1cc(Nc2ccccc2)nc(-c2ccccc2O)n1 | 7.92 µM
Cc1ccc(C(=O)ONc2ccc(N=NC(=O)c3ccccc3O)cc2)cc1 | 3.56 µM
O=C1NC[C@@H](Cc2cccc3ccccc23)N(CCCCC2CCCCC2)C1=O | 7.05 µM
Cc1ccc(/C=C/C(=O)NCC2COc3ccccc3O2)o1 (stereo not given) | > 19.5 µM (inactive)
O=C1C2=C(NC(=S)NC2c2ccc(Cl)cc2)NC(c2ccc(Cl)cc2)N1c1ccc(Cl)cc1 (stereo not given) | 6.8 µM
Cc1ccccc1C(=O)N1CCN(c2ccc(NC(=O)c3ccc([N+](=O)[O-])o3)cc2)CC1 | 4.37 µM
CN(CC(=O)Nc1ccc(Cl)c(Cl)c1)C(=O)C12CC3CC(CC(C3)C1)C2 | 6.2 µM
C/C(=N/NC(=O)c1ccc(-c2ccccc2)cc1)c1cc(O)cc(O)c1 | 3.85 µM
Cc1onc(-c2c(Cl)cccc2Cl)c1C(=O)N/N=C(\N)COc1ccc(Cl)cc1 | 3.8 µM
Oc1ccc(Cl)cc1-c1cc(-c2cccc(Br)c2)n[nH]1 | 6.39 µM
C=C(C)COc1ccc(-c2nc(N)ncc2-c2ccc(Cl)cc2)c(O)c1 | 4 µM
CC[C@@H]1CC=C[C@H]2[C@H]1C(=O)N(Cc1ccccc1)[C@H]2c1ccc(OC)c(Cl)c1 | 7.13 µM
O=C(NC(=S)Nc1ccc(N2CCCCC2)c(Cl)c1)c1ccc2c(c1)OCCO2 | 3.58 µM
CNC(=O)NC(=O)C(C)OC(=O)c1c2c(nc3ccccc13)/C(=C/c1cccs1)CC2 (stereo not given) | 4.01 µM
Cc1ccc(/C=C/C(=O)NCCc2ccccc2)o1 | > 19.5 µM (inactive)
Cc1ccc(C(=O)/C=C/c2cc(Br)cc(Br)c2O)o1 | 3.57 µM
COc1ccc(-c2sc3ccccc3c2-c2ccc(OCCN(C)C)cc2)cc1 | 3.38 µM
CC(=O)Nc1ccc(-c2csc(NC(=O)Cc3cccc(F)c3)n2)cc1 | 5.64 µM
CCOC(=O)C(C(=O)OCC)C(Nc1ccc(Br)cc1)c1ccccc1 (stereo not given) | 19.8 µM
C/C(=N\Nc1cc(N2CCCCC2)nc(C)n1)c1ccc(Br)cc1 | 5.82 µM
Cc1ccc(/C=C/C(=O)Nc2ccc(Oc3ccccc3)cc2)o1 | 5.42 µM
CC(C)(C)OC(=O)NCc1ccc(NC(=O)c2nc[nH]c2C(=O)NCCCNC(=O)c2[nH]cnc2C(=O)Nc2ccc(CNC(=O)OC(C)(C)C)cc2)cc1 | 1.92 µM
COc1ccc(NS(=O)(=O)c2cc(NC(=O)c3ccc(=O)[nH]c3)ccc2N2CCCC2)cc1 | 1.1 µM
CCOC(=O)CS(=O)(=O)c1nc(-c2ccccc2)cc(C(F)(F)F)n1 | 3.25 µM

SMILES | AC50
O=C(c1cnn2c1NC(c1ccc(Br)cc1)CC2C(F)(F)F)N1CCN2CCCC2C1 (stereo not given) | 4.46 µM
O=C(NCC(c1cccs1)N1CCOCC1)c1ccc(Cl)s1 (stereo not given) | 1.76 µM
COc1cc([C@@H]2c3cc4c(cc3[C@@H](O)[C@H]3COC(=O)[C@H]23)OCO4)cc(OC)c1O[Si](C)(C)C(C)(C)C | 6.76 µM
O=C(/C=C/Sc1ccccc1)c1ccc(Cl)cc1 | 4.56 µM
Cc1cc(C2(c3ccc(O)c(C)c3)C(=O)Nc3ccccc32)ccc1O | 7.1 µM
O=C(CCOc1ccccc1)N1CCN(c2ccc(O)cc2)CC1 | 3.25 µM
COc1ccc(-c2cc(=O)n(-c3ccc([N+](=O)[O-])cc3)[nH]2)cc1 | 11.3 µM
CCc1ccc2c(c1)[C@H]1OCC[C@H]1[C@@H](c1cccs1)N2 | 2.06 µM
Cc1nn(-c2nc3ccccc3s2)c(C)c1Oc1ccccc1O | 5.71 µM
O=c1cc(NS(=O)(=O)c2ccccc2)nc(SCc2ccc(Cl)cc2)[nH]1 | 5.9 µM
CCN1CCN(CCCNC(=O)c2ccc(/C=C3/Sc4ccccc4N(Cc4ccccc4F)C3=O)cc2)CC1 | 3.14 µM
CCC(C)n1ncn(-c2ccc(N3CCN(c4ccc(O)cc4)CC3)cc2)c1=O (stereo not given) | 1.47 µM
Oc1ccc(Nc2nc(-c3ccc4ccccc4c3)cs2)cc1 | 7.1 µM
CCOC(=O)c1c(C)sc2c1N(C(=O)CCl)c1cc(Cl)ccc1S2 | 3.66 µM
Cc1cccc(N/N=C(\C(N)=O)C2=NC(C)(C)Cc3ccccc32)c1 | 10.9 µM
O=C(Nc1ccc(Cl)cc1)c1nc[nH]c1C(=O)NCCN(CCNC(=O)c1[nH]cnc1C(=O)Nc1ccc(Cl)cc1)CCNC(=O)c1[nH]cnc1C(=O)Nc1ccc(Cl)cc1 | 4.36 µM
COc1cccc(Nc2nc(-c3cccs3)nc3ccccc23)c1 | 7.32 µM
COc1cc(/C=N/NC(=O)c2ccc(CN(C)S(=O)(=O)c3ccc(C)cc3)cc2)ccc1O | 5.13 µM
Cc1ccc(S(=O)(=O)N2CCN(C(=O)COc3ccc(NC(=O)c4ccco4)cc3)CC2)cc1 | > 19.5 µM (inactive)
COc1ccc(NC(=O)c2ccc(COc3ccccc3Br)o2)cc1OC | 0.756 µM
NC(=O)CC(NC(=O)Cc1ccc(Br)cc1)c1ccc(N2CCN(c3ccccc3)CC2)c([N+](=O)[O-])c1 (stereo not given) | 17.6 µM
CCCC(=O)NC(c1ccc2c(c1)OCO2)c1cc(Cl)c2cccnc2c1O (stereo not given) | 3.1 µM
Nc1nc(Cl)nc2c1ncn2[C@H]1C[C@H](O)[C@@H](CO)O1 | 0.318 µM
CCc1cc2cc(C)cc(C)c2nc1SCC(=O)N1CCN(C(=O)c2ccco2)CC1 | 13.4 µM
Nc1ccc2c(c1)Oc1ccccc1C=C2 | > 19.5 µM (inactive)
